Experimental findings from patent US6432922B1 (Corvas International, Inc., priority 1998, dated 2002) are described below.

In one assay the target is T1, Human rt-PA (Activase) (Homo sapiens, UniProt P00750).
T1 construct: purchased Genentech Inc
Briefly: Recombinant tissue plasminogen activator (rt-PA) chromogenic assay. Particulars: 30 minute preincubation, HBSA buffer; read-out: tPA IC50. In kind it is biochemical. Here is the method: rt-PA catalytic activity was determined using the substrate, Pefachrome t-PA (CH3SO2-D-hexahydrotyrosine-glycyl-L-arginine-p-nitroaniline, obtained from Pentap harm Ltd.). The substrate was made up in deionized water followed by dilution in HBSA prior to the assay in which the final concentration was 500 micromolar (about 3-times Km). Human rt-PA (Activase®) was obtained from Genentech Inc. The enzyme was reconstituted in deionized water and diluted into HBSA prior to the assay in which the final concentration was 1.0 nM.

For a further assay, the target named is T2, human plasmin (Homo sapiens, UniProt P00747).
T2 construct: purchased Enzyme Research Laboratories, Inc
As to the kind of experiment: Plasmin chromogenic substrate (S-2366) assay. In kind it is biochemical. Conditions: 30 minute preincubation, HBSA buffer. How it is done:
The substrate was made up in deionized water followed by dilution in HBSA prior to the assay in which the final concentration was 300 micromolar (about 2.5-times Km). Purified human plasmin was obtained from Enzyme Research Laboratories, Inc. The enzyme was diluted into HBSA prior to assay in which the final concentration was 1.0 nM.

A further assay deals with Urokinase (Abbokinase) (Homo sapiens, UniProt P00749). Briefly: Urokinase chromogenic substrate (S-2444) IC50 assay.
Where [1] appears, read: read-out: uPA IC50, 30 minute preincubation, HBSA buffer.

Where two headings read alike, the source gives them in different places. Non-standard residues stand in square brackets, D forms with d. Residues, ends and D or L forms follow the SMILES beside them. *: point of attachment. Fmoc = O=C(OCC1c2ccccc2-c2ccccc21)*; d(aThr) = C[C@@H](O)[C@@H](N)C(=O)O; cisHyp = O=C(O)[C@@H]1C[C@H](O)CN1; NMeA = CN[C@@H](C)C(=O)O; Cbz = O=C(OCc1ccccc1)*; Sar = CNCC(=O)O; Moc = COC(=O)* Bounds are passed on as bounds.

T2 sequence (P00747 581-810 limits assumed): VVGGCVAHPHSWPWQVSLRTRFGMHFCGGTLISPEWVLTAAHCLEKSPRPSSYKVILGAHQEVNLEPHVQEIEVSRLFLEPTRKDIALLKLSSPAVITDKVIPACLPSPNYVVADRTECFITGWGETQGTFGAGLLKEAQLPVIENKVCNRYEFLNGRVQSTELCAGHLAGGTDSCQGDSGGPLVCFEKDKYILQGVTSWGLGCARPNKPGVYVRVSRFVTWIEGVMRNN
T2 sequence (P00747 97-580 partner limits assumed): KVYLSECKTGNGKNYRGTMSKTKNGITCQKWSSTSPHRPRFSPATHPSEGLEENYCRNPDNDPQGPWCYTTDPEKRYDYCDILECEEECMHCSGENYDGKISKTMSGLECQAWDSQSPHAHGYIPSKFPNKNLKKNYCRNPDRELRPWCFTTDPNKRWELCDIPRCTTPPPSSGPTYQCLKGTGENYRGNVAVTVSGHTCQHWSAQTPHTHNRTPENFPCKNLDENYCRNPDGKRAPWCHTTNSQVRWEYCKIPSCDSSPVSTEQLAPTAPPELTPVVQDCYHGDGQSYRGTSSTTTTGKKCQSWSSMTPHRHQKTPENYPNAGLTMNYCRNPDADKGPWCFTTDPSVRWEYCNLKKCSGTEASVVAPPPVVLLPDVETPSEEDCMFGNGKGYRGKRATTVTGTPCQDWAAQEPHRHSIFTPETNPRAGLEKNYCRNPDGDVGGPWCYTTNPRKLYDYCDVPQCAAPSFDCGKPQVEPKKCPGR
T1 sequence (P00750 36-562): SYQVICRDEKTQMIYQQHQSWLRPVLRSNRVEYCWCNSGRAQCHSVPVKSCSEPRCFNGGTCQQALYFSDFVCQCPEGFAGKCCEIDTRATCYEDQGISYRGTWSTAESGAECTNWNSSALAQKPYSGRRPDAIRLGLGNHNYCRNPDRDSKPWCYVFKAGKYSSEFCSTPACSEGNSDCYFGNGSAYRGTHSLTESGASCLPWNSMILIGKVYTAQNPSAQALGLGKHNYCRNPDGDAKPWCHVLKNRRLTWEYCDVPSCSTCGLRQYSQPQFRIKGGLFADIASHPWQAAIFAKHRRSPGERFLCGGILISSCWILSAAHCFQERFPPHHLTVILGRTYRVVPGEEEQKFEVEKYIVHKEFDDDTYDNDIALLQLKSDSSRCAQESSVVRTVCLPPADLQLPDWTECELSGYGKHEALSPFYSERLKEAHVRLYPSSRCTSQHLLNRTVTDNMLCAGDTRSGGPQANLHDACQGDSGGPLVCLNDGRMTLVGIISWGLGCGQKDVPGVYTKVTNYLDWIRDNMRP
Procedure for Urokinase (Abbokinase): The buffer used for all assays was HBSA (10 mM HEPES, pH 7.5, 150 mM sodium chloride, 0.1% bovine serum albumin).
The initial velocity of chromogenic substrate hydrolysis was measured by the change in absorbance at 405 nm using a Thermo Max® Kinetic Microplate Reader over a 5 minute period in which less than 5% of the added substrate was utilized.
The assay buffer was HBS (10mM HEPES, 150mM sodium chloride pH 7.4) with 0.1% BSA.

Consider `C[C@H](NC(=O)[C@@H](CO)NS(=O)(=O)CCc1ccccc1)C(=O)N[C@H](C=O)CCCNC(=N)N` [Compound 47, 2-phenylethylsulfonyl-D-seryl-alanyl-argininal], for which the IC50 on Human rt-PA (Activase) was > 2500 nM; at human plasmin, 250 to 2500 nM; at Urokinase (Abbokinase), < 100 nM.
As for “benzyloxycarbonyl-D-seryl-L-β-cyanoalanine-argininal [Compound 46]”, the IC50 was > 2500 nM on Human rt-PA (Activase), 250 to 2500 nM at human plasmin and < 100 nM on Urokinase (Abbokinase) (setting [1]).
Turning to `CC[C@@H](NC(=O)OCc1ccccc1)C(=O)N[C@@H](C)C(=O)NC(C=O)CCCNC(=N)N` (some centres unmarked) [Compound 44], the IC50 on Human rt-PA (Activase) was > 2500 nM; against human plasmin, 250 to 2500 nM; at Urokinase (Abbokinase), 250 to 2500 nM.
As for `C[C@H](NC(=O)[C@@H](C)NC(=O)OCc1ccccc1)C(=O)N[C@H](C=O)CCCNC(=N)N` [Compound 21, benzyloxycarbonyl-D-alanyl-alanyl-argininal] (Cbz-[dA]-Ala-Arg-aldehyde), the concentration for half-maximal inhibition (IC50) against Urokinase (Abbokinase) fell in the range of 100 to 250 nM.
Consider `CCCCOC(=O)N[C@H](CO)C(=O)N[C@@H](C)C(=O)N[C@H](C=O)CCCNC(=N)N` [Compound 9, n-butyloxycarbonyl-D-seryl-alanyl-argininal], for which the half-maximal inhibitory concentration (IC50) on Human rt-PA (Activase) is > 2500 nM; at Urokinase (Abbokinase), < 100 nM.
In the same order, the values of `CC1CCC(C(C)C)C(OC(=O)N[C@H](CO)C(=O)N[C@@H](C)C(=O)N[C@H](C=O)CCCNC(=N)N)C1` (single isomer, unassigned; (+)) [Compound 7, (+)menthyloxy-carbonyl-D-seryl-alanyl-argininal] are > 2500 nM and < 100 nM.
`N=C(N)NCCC[C@@H](C=O)NC(=O)[C@@H]1CCCN1C(=O)[C@@H](CO)NC(=O)OCc1ccccc1` [Compound 11, benzyloxycarbonyl-D-seryl-prolyl-argininal] (Cbz-[dS]-Pro-Arg-aldehyde): the figures for the IC50 at Human rt-PA (Activase), on human plasmin and at Urokinase (Abbokinase) were > 2500 nM, 250 to 2500 nM and < 100 nM, respectively.
In the same order, the values of `N=C(N)NCCC[C@@H](C=O)NC(=O)[C@H](CO)NC(=O)[C@@H](CO)NC(=O)OCc1ccccc1` [Compound 45, benzyloxycarbonyl-D-seryl-L-seryl-argininal] (Cbz-[dS]-Ser-Arg-aldehyde) are > 2500 nM, 250 to 2500 nM and 100 to 250 nM.
In the same order, the values of `C[C@H](NC(=O)[C@@H](CO)NC(=O)CCC1CCCCC1)C(=O)N[C@H](C=O)CCCNC(=N)N` [Compound 35, 3-cyclohexylpropionyl-D-seryl-alanyl-argininal] are > 2500 nM, > 2500 nM and 250 to 2500 nM.
Take `C[C@H](NC(=O)[C@@H](CO)NC(=O)OCC1c2ccccc2-c2ccccc21)C(=O)N[C@H](C=O)CCCNC(=N)N` [Compound 10, Fluorenylmethyloxycarbonyl-D-seryl-alanyl-argininal] (Fmoc-[dS]-Ala-Arg-aldehyde): the values for the IC50 at Human rt-PA (Activase) and against Urokinase (Abbokinase) were > 2500 nM and < 100 nM, respectively.
Consider `N=C(N)NCCCC(C=O)NC(=O)C1CCN1C(=O)C(CO)NS(=O)(=O)c1ccccc1` [Compound 31, benzenesulfonyl-D-seryl-azetidyl-argininal], for which the results for the IC50 on human plasmin and on Urokinase (Abbokinase) (setting [1]) were 250 to 2500 nM and < 100 nM, respectively.
For `C[C@H](NC(=O)[C@@H](CO)NS(=O)(=O)c1ccccc1)C(=O)N[C@H](C=O)CCCN=C(N)N` [Compound 28, Benzenesufonyl-D-Ser-L-Ala-L-Arg-al], the IC50 at Human rt-PA (Activase) is > 2500 nM; against human plasmin it was 250 to 2500 nM; on Urokinase (Abbokinase) (setting [1]), < 100 nM.
With `C[C@H](NC(=O)[C@@H](CO)NC(=O)NCC1CCCCC1)C(=O)N[C@H](C=O)CCCNC(=N)N` [Compound 37, cyclohexylmethylazacarbonyl-D-seryl-alanyl-argininal], the IC50 on Human rt-PA (Activase) was > 2500 nM; against human plasmin, > 2500 nM; on Urokinase (Abbokinase), 100 to 250 nM.
With `N=C(N)NCCC[C@@H](C=O)NC(=O)[C@@H]1C[C@H](O)CN1C(=O)[C@@H](CO)NC(=O)OCc1ccccc1` [Compound 49, benzyloxycarbonyl-D-seryl-L-cis-4-hydroxyprolyl-argininal] (Cbz-[dS]-[cisHyp]-Arg-aldehyde), the results for the IC50 on Human rt-PA (Activase), on human plasmin and at Urokinase (Abbokinase) were > 2500 nM, 250 to 2500 nM and < 100 nM, respectively.
As for `C[C@H](NC(=O)[C@@H](CO)NC(=O)Oc1ccc2ccccc2c1)C(=O)N[C@H](C=O)CCCNC(=N)N` [Compound 4, 2-naphthyloxy-carbonyl-D-seryl-alanyl-argininal], the IC50 at Human rt-PA (Activase) is > 2500 nM; against Urokinase (Abbokinase), < 100 nM.
Take `C[C@H](NC(=O)[C@@H](CO)NS(=O)(=O)/C=C/c1ccccc1)C(=O)N[C@H](C=O)CCCNC(=N)N` [Compound 53, trans-β-Styrenesulfonyl-D-seryl-L-alanyl-argininal]: the results for the IC50 at Human rt-PA (Activase), against human plasmin and against Urokinase (Abbokinase) were > 2500 nM, 250 to 2500 nM and < 100 nM, respectively.
Consider `CSC[C@H](NC(=O)[C@@H](CO)NC(=O)OCc1ccccc1)C(=O)N[C@H](C=O)CCCNC(=N)N` [Compound 15, benzyloxycarbonyl-D-seryl-S-methylcysteinyl-argininal] (Cbz-[dS]-Cys(Me)-Arg-aldehyde), for which the IC50 was > 2500 nM at Human rt-PA (Activase) and 100 to 250 nM against Urokinase (Abbokinase).
In the same order, the values of `CC[C@H](NC(=O)[C@@H](CO)NC(=O)OCc1ccccc1)C(=O)N[C@H](C=O)CCCNC(=N)N` [Compound 14] are > 2500 nM and < 100 nM.
With `C[C@H](NC(=O)[C@H](NC(=O)OCc1ccccc1)[C@H](C)O)C(=O)N[C@H](C=O)CCCNC(=N)N` [Compound 22, benzyloxycarbonyl-D-threonyl-alanyl-argininal] (Cbz-[dT]-Ala-Arg-aldehyde), the IC50 at Human rt-PA (Activase) was > 2500 nM; at Urokinase (Abbokinase) it was 250 to 2500 nM.
In the same order, the values of `CN(CC(=O)N[C@H](C=O)CCCNC(=N)N)C(=O)[C@@H](CO)NC(=O)OCc1ccccc1` [Compound 18, benzyloxycarbonyl-D-seryl-sarcosyl-argininal] (Cbz-[dS]-[Sar]-Arg-aldehyde) are > 2500 nM and 250 to 2500 nM.
For `C[C@H](NC(=O)[C@H](CO)NC(=O)OCc1ccccc1)C(=O)N[C@H](C=O)CCCNC(=N)N` [Compound 23, benzyloxycarbonyl-seryl-alanyl-argininal] (Cbz-Ser-Ala-Arg-aldehyde), in that order: > 2500 nM and 250 to 2500 nM.
As to `C[C@@H](O)[C@@H](NC(=O)OCc1ccccc1)C(=O)N(C)CC(=O)N[C@H](C=O)CCCNC(=N)N` [Compound 24, benzyloxycarbonyl-D-allothreonyl-sarcosyl-argininal] (Cbz-[d(aThr)]-[Sar]-Arg-aldehyde), the IC50 against Urokinase (Abbokinase) is 100 to 250 nM.
For `CCCCC(CC)COC(=O)N[C@H](CO)C(=O)N[C@@H](C)C(=O)N[C@H](C=O)CCCNC(=N)N` (stereo partly drawn) [Compound 6, 2-ethylhexyloxy-carbonyl-D-seryl-alanyl-argininal], the IC50 on Human rt-PA (Activase) was > 2500 nM; at Urokinase (Abbokinase), < 100 nM.
With `C[C@H](O)[C@@H](NC(=O)OCc1ccccc1)C(=O)N1CCC[C@H]1C(=O)N[C@H](C=O)CCCNC(=N)N` [Compound 26, benzyloxycarbonyl-D-threonyl-prolyl-argininal] (Cbz-[dT]-Pro-Arg-aldehyde), the IC50 on Human rt-PA (Activase) is > 2500 nM; against Urokinase (Abbokinase) it was 100 to 250 nM.
In the same order, the values of `N=C(N)NCCC[C@@H](C=O)NC(=O)[C@@H]1CCCCN1C(=O)[C@@H](CO)NC(=O)OCc1ccccc1` [Compound 13] are > 2500 nM and 100 to 250 nM.
In the same order, the values of `CCCC(NC(=O)[C@@H](CO)NC(=O)OCc1ccccc1)C(=O)NC(C=O)CCCNC(=N)N` (some centres unmarked) [Compound 16] are > 2500 nM and 100 to 250 nM.
As to `C[C@@H](O)[C@@H](NC(=O)OCc1ccccc1)C(=O)N(C)[C@@H](C)C(=O)N[C@H](C=O)CCCNC(=N)N` [Compound 25, benzyloxycarbonyl-D-allothreonyl-N-methylalanyl-argininal] (Cbz-[d(aThr)]-[NMeA]-Arg-aldehyde), the IC50 on Urokinase (Abbokinase) was in the range of 100 to 250 nM.
`COC(=O)N[C@H](CO)C(=O)N[C@@H](C)C(=O)N[C@H](C=O)CCCNC(=N)N` [Compound 8, methyloxycarbonyl-D-seryl-alanyl-argininal] (Moc-[dS]-Ala-Arg-aldehyde): the IC50 is > 2500 nM on Human rt-PA (Activase) and < 100 nM on Urokinase (Abbokinase).
For `C[C@H](NC(=O)[C@@H](NC(=O)OCc1ccccc1)[C@@H](C)O)C(=O)N[C@H](C=O)CCCNC(=N)N` [Compound 20, benzyloxycarbonyl-threonyl-alanyl-argininal] (Cbz-Thr-Ala-Arg-aldehyde), in that order: > 2500 nM and 100 to 250 nM.
`CC1CCC(C(C)C)C(OC(=O)N[C@H](CO)C(=O)N[C@@H](C)C(=O)N[C@H](C=O)CCCNC(=N)N)C1` (single isomer, unassigned; (-)) [Compound 3, (−)menthyloxy-carbonyl-D-seryl-alanyl-argininal]: the figures for the IC50 at Human rt-PA (Activase) and at Urokinase (Abbokinase) (setting [1]) were > 2500 nM and < 100 nM, respectively.
On to `C[C@H](NC(=O)[C@@H](CO)NC(=O)Oc1ccccc1)C(=O)N[C@H](C=O)CCCNC(=N)N` [Compound 5, phenoxycarbonyl-D-seryl-alanyl-argininal], for which the half-inhibitory concentration (IC50) was > 2500 nM on Human rt-PA (Activase) and < 100 nM at Urokinase (Abbokinase).
For `N=C(N)NCCCC(C=O)NC(=O)CNC(=O)[C@@H](CO)NC(=O)OCc1ccccc1` (some centres unmarked) [Compound 17], in that order: > 2500 nM and 100 to 250 nM.

For orientation: IC50 means the concentration that inhibits the measured activity by half.
